According to patent US10376520B2, “Methods for the treatment of cardiovascular disorders” (Galapagos NV, priority 2015, dated 2019):

System: RA patients
Assay: Atherogenic index, Study 1 (RA patients, add-on to MTX)
Format: in vivo, human
Experimental: As used herein, the term ‘atherogenic index’ refers to
Double-blind, placebo-controlled add on study in subjects with moderately to severely active RA who have an inadequate response to methotrexate (MTX) (oral or parenteral).
Compound 1 (dosed as a [Compound 1:HCl:3H2O]) is dosed for twelve weeks once daily (q.d.) (50 mg, 100 mg or 200 mg) or twice daily (b.i.d.) (25 mg, 50 mg or 100 mg); or placebo.
At Week 12, the subjects on placebo who have not achieved 20% improvement in swollen joint count (SJC66) and tender joint count (TJC68) are re-randomized automatically to receive Compound 1 (dosed as a [Compound 1:HCl:3H2O]) either at 100 mg q.d. or 50 mg b.i.d. doses in a blinded fashion; subjects on 50 mg q.d. who have not achieved 20% improvement in SJC66 and TJC68 will be assigned to 100 mg q.d. and subjects on 25 mg b.i.d. that have not achieved a 20% improvement in SJC66 and TJC68 will be assigned to 50 mg b.i.d. Subjects who switch treatment at week 12 are handled as if they discontinued at week 12 for the purpose of statistical analysis, whereas subjects in the other groups will maintain their randomized treatment until Week 24.
The atherogenic index has been identified to be a good predictor of cardiovascular disorders risks and is calculated as follows: […]

[1] = 100 mg b.i.d. continued over 24 weeks, week 1
[2] = 100 mg b.i.d. continued over 24 weeks, week 2
[3] = 100 mg b.i.d. continued over 24 weeks, week 4
[4] = 100 mg b.i.d. continued over 24 weeks, week 8
[5] = 100 mg b.i.d. continued over 24 weeks, week 12
[6] = 100 mg b.i.d. continued over 24 weeks, week 16
[7] = 100 mg b.i.d. continued over 24 weeks, week 20
[8] = 100 mg b.i.d. continued over 24 weeks, week 24
[9] = 100 mg q.d. continued over 24 weeks, week 1
[10] = 100 mg q.d. continued over 24 weeks, week 2
[11] = 100 mg q.d. continued over 24 weeks, week 4
[12] = 100 mg q.d. continued over 24 weeks, week 8
[13] = 100 mg q.d. continued over 24 weeks, week 12
[14] = 100 mg q.d. continued over 24 weeks, week 16
[15] = 100 mg q.d. continued over 24 weeks, week 20
[16] = 100 mg q.d. continued over 24 weeks, week 24

O=C(Nc1nc2cccc(-c3ccc(CN4CCS(=O)(=O)CC4)cc3)n2n1)C1CC1 [Compound 1, cyclopropanecarboxylic acid {5-[4-(1,1-dioxo-thiomorpholin-4-ylmethyl)-phenyl]-[1,2,4]triazolo[1,5-a]pyridin-2yl}-amide]
Atherogenic index Median CFB - 12 weeks results (50 mg q.d., week 1): -0.10 mmol/L | Atherogenic index Mean CFB (50 mg q.d., week 2): -0.13 mmol/L | Atherogenic index Mean percentage CFB - 12 weeks results (50 mg q.d., week 2): −3% | Atherogenic index Median CFB - 12 weeks results (50 mg q.d., week 2): -0.20 mmol/L | Atherogenic index Mean CFB (50 mg q.d., week 4): -0.11 mmol/L | Atherogenic index Mean percentage CFB - 12 weeks results (50 mg q.d., week 4): −3% | Atherogenic index Median CFB - 12 weeks results (50 mg q.d., week 4): -0.10 mmol/L | Atherogenic index Mean CFB (50 mg q.d., week 8): -0.03 mmol/L | Atherogenic index Mean percentage CFB - 12 weeks results (50 mg q.d., week 8): 0% | Atherogenic index Median CFB - 12 weeks results (50 mg q.d., week 8): -0.10 mmol/L | Atherogenic index Mean CFB (50 mg q.d., week 12): 0.01 mmol/L | Atherogenic index Mean percentage CFB - 12 weeks results (50 mg q.d., week 12): 2% | Atherogenic index Median CFB - 12 weeks results (50 mg q.d., week 12): 0.00 mmol/L | Atherogenic index Mean CFB - 24 weeks results [1]: -0.05 mmol/L | Atherogenic index Mean percentage CFB - 24 weeks results [1]: −0.38% | Atherogenic index Median CFB - 24 weeks results [1]: 0.00 mmol/L | Atherogenic index Mean CFB - 24 weeks results [2]: -0.19 mmol/L | Atherogenic index Mean percentage CFB - 24 weeks results [2]: −4.84% | Atherogenic index Median CFB - 24 weeks results [2]: -0.20 mmol/L | Atherogenic index Mean CFB - 24 weeks results [3]: -0.30 mmol/L | Atherogenic index Mean percentage CFB - 24 weeks results [3]: −6.94% | Atherogenic index Median CFB - 24 weeks results [3]: -0.30 mmol/L | Atherogenic index Mean CFB - 24 weeks results [4]: -0.18 mmol/L | Atherogenic index Mean percentage CFB - 24 weeks results [4]: −3.54% | Atherogenic index Median CFB - 24 weeks results [4]: -0.20 mmol/L | Atherogenic index Mean CFB - 24 weeks results [5]: -0.24 mmol/L | Atherogenic index Mean percentage CFB - 24 weeks results [5]: −4.76% | Atherogenic index Median CFB - 24 weeks results [5]: -0.20 mmol/L | Atherogenic index Mean CFB - 24 weeks results [6]: -0.25 mmol/L | Atherogenic index Mean percentage CFB - 24 weeks results [6]: −5.23% | Atherogenic index Median CFB - 24 weeks results [6]: -0.30 mmol/L | Atherogenic index Mean CFB - 24 weeks results [7]: -0.24 mmol/L | Atherogenic index Mean percentage CFB - 24 weeks results [7]: −5.40% | Atherogenic index Median CFB - 24 weeks results [7]: -0.20 mmol/L | Atherogenic index Mean CFB - 24 weeks results [8]: -0.18 mmol/L | Atherogenic index Mean percentage CFB - 24 weeks results [8]: −3.70% | Atherogenic index Median CFB - 24 weeks results [8]: -0.20 mmol/L | Atherogenic index Mean CFB - 24 weeks results [9]: -0.06 mmol/L | Atherogenic index Mean percentage CFB - 24 weeks results [9]: −0.13% | Atherogenic index Median CFB - 24 weeks results [9]: -0.10 mmol/L | Atherogenic index Mean CFB - 24 weeks results [10]: -0.17 mmol/L | Atherogenic index Mean percentage CFB - 24 weeks results [10]: −2.80% | Atherogenic index Median CFB - 24 weeks results [10]: -0.10 mmol/L | Atherogenic index Mean CFB - 24 weeks results [11]: -0.11 mmol/L | Atherogenic index Median CFB - 24 weeks results [11]: -0.10 mmol/L | Atherogenic index Mean CFB - 24 weeks results [12]: -0.11 mmol/L | Atherogenic index Mean percentage CFB - 24 weeks results [12]: −1.34% | Atherogenic index Median CFB - 24 weeks results [12]: -0.10 mmol/L | Atherogenic index Mean CFB - 24 weeks results [13]: -0.06 mmol/L | Atherogenic index Mean percentage CFB - 24 weeks results [13]: −0.45% | Atherogenic index Median CFB - 24 weeks results [13]: -0.10 mmol/L | Atherogenic index Mean CFB - 24 weeks results [14]: -0.18 mmol/L | Atherogenic index Mean percentage CFB - 24 weeks results [14]: −3.49% | Atherogenic index Median CFB - 24 weeks results [14]: -0.20 mmol/L | Atherogenic index Mean CFB - 24 weeks results [15]: -0.27 mmol/L | Atherogenic index Mean percentage CFB - 24 weeks results [15]: −5.64% | Atherogenic index Median CFB - 24 weeks results [15]: -0.35 mmol/L | Atherogenic index Mean CFB - 24 weeks results [16]: -0.17 mmol/L | Atherogenic index Mean percentage CFB - 24 weeks results [16]: −3.81% | Atherogenic index Median CFB - 24 weeks results [16]: -0.30 mmol/L | Atherogenic index Mean CFB (100 mg q.d., week 1): -0.06 mmol/L | Atherogenic index Mean percentage CFB - 12 weeks results (100 mg q.d., week 1): 0% | Atherogenic index Median CFB - 12 weeks results (100 mg q.d., week 1): -0.10 mmol/L | Atherogenic index Mean CFB (100 mg q.d., week 2): -0.17 mmol/L | Atherogenic index Mean percentage CFB - 12 weeks results (100 mg q.d., week 2): −3% | Atherogenic index Median CFB - 12 weeks results (100 mg q.d., week 2): -0.10 mmol/L | Atherogenic index Mean CFB (100 mg q.d., week 4): -0.11 mmol/L | Atherogenic index Mean percentage CFB - 12 weeks results (100 mg q.d., week 4): −2% | Atherogenic index Median CFB - 12 weeks results (100 mg q.d., week 4): -0.10 mmol/L | Atherogenic index Mean CFB (100 mg q.d., week 8): -0.11 mmol/L | Atherogenic index Mean percentage CFB - 12 weeks results (100 mg q.d., week 8): −1% | Atherogenic index Median CFB - 12 weeks results (100 mg q.d., week 8): -0.10 mmol/L | Atherogenic index Mean CFB (100 mg q.d., week 12): -0.06 mmol/L | Atherogenic index Mean percentage CFB - 12 weeks results (100 mg q.d., week 12): 0%
